# Data published in patent US20220054384A1, “MICROBIOSTATIC SOAP THAT REDUCES THE TRANSMISSION OF MICROBES” (GPCP IP Holdings LLC, priority 2018, published 2022).
# Legend:
# [1] = system: Staphylococcus aureus ATCC 6538 and Escherichia coli ATCC 15225; test: Bacteriostatic MIC of release agents (modified standard MIC protocol, tube growth then streak onto TSA plate); assay type: cell-based; settings: upper bacteriostatic concentration limit of release agent; no initial growth in solution but growth after swabbing onto growth media plate
# [2] = system: Staphylococcus aureus ATCC 6538 and Escherichia coli ATCC 15225; test: as above; assay type: cell-based; settings: lower bacteriostatic limit (bacteriostatic MIC): no growth in tube, growth on TSA plate
# Description: Release agents for use in the described soaps and hard surface cleaners are those materials that can coat all or part of a microbe or spore wall, but not penetrate the cellular or spore wall, rendering the microbe unable to infect skin or reproduce at the time of application. Not only does the release agent coat the microbe, it also coats skin. Because the microbe coating and skin coating have similar charges, the microbe is repelled from the skin surface into the soap layer. After rinsing the soap, the material is disrupted and releases, allowing regrowth of the microbe. […] However, when the solution is swabbed onto a growth media plate, polymer disruption and release occur, allowing the microbe to resume growth. […] A series of compounds were tested to determine whether microbes exposed to these compositions and rinsed off were still viable to regrow. The standard MIC protocol (Internal NTC Microbiology Lab Method: MB-025) was followed for this work with some modifications. The organisms used were Staphylococcus aureus ATCC® 6538™ and Escherichia coli ATCC® 15225™ (94 TFM). All organisms were purchased from Microbiologics® and grown in the lab on Trypticase Soy Agar (TSA) at 35° C. The organisms were washed off of the agar into 0.1% peptone water and visually matched to a McFarland 0.5 Standard (equal to […]). Ten-fold serial dilutions were prepared for all chemicals tested in Mueller-Hinton II Broth (MH Broth). An initial 1:10 dilution in MH Broth was made and all subsequent dilutions were prepared by removing 1 mL from the previous dilution and transferring to a sterile MH Broth tube. For the initial screening, 1:10 serial dilutions were prepared through 1:1,000,000. One mL of the bacterial solution was added to each dilution tube and vortexed to mix. […] For subsequent round(s) of testing, the parts per million (ppm) of chemical was calculated and dilution tubes were prepared to bracket the ppm of growth/no-growth seen during the first round of testing. Each tube was prepared by adding in the calculated amount of MH Broth and test substance. The inoculation and incubation procedure was followed as stated above. […] For the second round of samples, each tube with no growth was streaked onto a Trypticase Soy Agar (TSA) plate to identify if the organism was still present in the tube but unable to grow in the presence of the chemical. All TSA plates were incubated for 18±4 hours at 37° C. and then observed for growth/no-growth.
Molecule,Upper Limit from 1 min Exposure [1],Lower Limit from 24-hour growth (%) [2] [%]
CCCCCCCCOC(=O)CC(C(=O)OCCCCCCCC)S(=O)(=O)[O-].[Na+] (stereo not shown) [Dioctyl sulfosuccinate sodium salt],5.0,5.0
CCCCCCCCCCCC(=O)NCCC[N+](C)(C)CC(=O)[O-] [Lauramidopropyle betaine],4.0,0.1
Cocamidopropyl betaine,27.0,1.0
Cocamidopropyl hydroxy sultaine,45.0,0.5
Disodium Cocamphodiacetate,36.0,2.0
